From patent US9657059B2, “Immune system modulators” (Canimguide Therapeutics AB, priority 2013, dated 2017)
No end group written: not given here.

Assays:
[1] = system: NK-cell cytotoxicity against K562 target cells; assay type: cell-based, human
Description: The ability of specific albumin fragments to impact NK-cell cytotoxicity was also evaluated. In these experiments, synthetic peptides corresponding to albumin fragments (P3028, P3026, and P3027) (SEQ ID NOs: 185, 183, and 184, respectively) were prepared and the amount of lysis of K562 target cells was assessed (see Example 4).

[2] = system: K562 target cells; test: NK-cell cytotoxicity (NKTEST); assay type: cell-based, human; details: 10 ug/ml, effector:target 40:1, four donors
Description: The NK-cell cytotoxic activity of blood mononuclear cells from four healthy donors was tested. Mononuclear cells were separated by standard Ficoll-paque Plus (Pharmacia AB, Sweden) density gradient centrifugation from heparinized blood obtained from healthy donors. NK cell cytotoxic activity of the mononuclear cells was then tested using a commercial kit (NKTEST, Orpegen Pharma GmblI, Heidelberg, Germany) following the manufacturers protocol. Briefly, the kit contains cryopreserved, NK-sensitive target cells (K562) labeled with a lipophilic green fluorescent membrane dye, which enables discrimination of effector and target cells. After incubation with effector cells, killed target cells are identified by a DNA-stain, which penetrates and specifically stain the nuclei of dead target cells. This way the percentage of killed targets can be determined by flow cytometry. The mononuclear cells were preincubated for 30 min at 37° C. with the indicated peptides (peptides have been described previously) at 10 ug/ml. Target cells were then added, giving an effector:target ratio of 40:1, and the cell mixture incubated at 37° C. for 3-4 hours. Samples were analysed on a FACSCalibur (BD Biosciences, San Jose, Calif.).

[3] = target: P3028 (Homo sapiens, UniProt P02768); test: Chip ELISA: binding of His-tag labeled P3028 to cyclic peptides, positional scan
Description: In order to identify cyclic peptides that bind to P3028, all possible variants of di- and tripeptides were synthesized on chips and the binding of the His-tag labeled P 3028 was analyzed using the ELISA-technique. Based on the identified binding motifs, looped 6-meres were produced and tested. […] Positional scans were performed in each position of the lead cyclic peptide was replaced with each of the other 19 L-amino acids. Binding of each of the substituted peptides was tested, and peptide sequences with even better binding capacity than that of the lead peptide were identified.

[4] = system: PBMCs from a healthy control; test: PBMC activation (CD69, CD71) by flow cytometry in RPMI plus 10% human AB serum; assay type: cell-based; details: 40 μg/mL; for PBMC activation, cells with enhanced CD69: 24 hours
Description: FIG. 41 is a series of graphs illustrating effects of modified peptides on activation of PBMCs from healthy control person. PBMCs were incubated with the peptides (40 μg/mL) for 24 hours in RPMI plus 10% human AB serum. Activation is determined as percentage of cells with enhanced marker CD69 using flow cytometry. FIG. 41A illustrates results of two experiments (410 and 412) performed for each peptide. FIG. 41B illustrates results of two experiments (414 and 416) performed for each peptide.
FIG. 42 is a series of graphs illustrating effects of the full length peptide P28R and the 6 amino acid central sequence (32230, FFVKLS, SEQ ID NO: 62) in culture medium containing normal human AB serum. Activation is determined as percentage of cells with enhanced marker CD69 or CD71 using flow cytometry. PBMCs were incubated with the peptides (40 μg/mL) for 24 hours in RPMI plus 10% human AB serum. FIG. 42A illustrates the results of two experiments (420 and 422) performed for each peptide. FIG. 42B illustrates the results of two experiments (424 and 426) performed for each peptide.
FIG. 46 is a series of graphs illustrating Effect of modified peptides on activation of PBMCs from healthy control person. […] PBMCs were incubated with the peptides (40 μg/mL) for 48 hours in RPMI plus 10% human AB serum.
Based on the positional scan data, it is contemplated that substitutions of SEQ ID NO: 2 can be useful in accordance with some embodiments herein for binding P3028, de-blocking the LFA-1 receptor from P3028-mediated inhibition (e.g. displacing bound P3028 peptide and P3028-structure containing molecules from the LFA-1 receptor), and/or stimulating immune cells. The activity of peptide P28R (SEQ ID NO: 2) and modifications of P28R was studied in a human ex vivo model using PBMCs from a healthy control human in short term cultures, and with PBMC activation measured as a percentage of cells with enhanced CD69 (see Example 37).
As P28R (SEQ ID NO: 2) can bind to P3028 and stimulate PBMC's from healthy controls in short term cultures, for example when in a culture medium comprising RPMI plus 10% normal human AB serum (see Example 37), it is contemplated that truncations of P28R in accordance with some embodiments herein can be useful for binding to inhibitors of any one or more of the peptides listed in Tables 1-4. Truncations of P28R were assessed for their ability to activate PBMC's (see Example 38). PBMCs were incubated with the peptides (40 μg/mL) for 24 hours in RPMI plus 10% human AB serum. PBMC activation was measured as percent cells with enhanced expression of either CD69 (FIG. 42A) or CD71 (FIG. 42B) using flow cytometry. […] However, PBMCs were also incubated with the peptides in cancer sera from dogs, or in caner sera from human cancer patients (see FIG. 43). […] As such, it is contemplated that in accordance with some embodiments herein, P28R, P28 core, or combinations of these peptides are useful for stimulating immune cells in the serum of a subject that has cancer.
Effects of modified peptides on the activation of PBMCs from a healthy control person were assessed (see Example 41). PBMCs were incubated with the peptides (40 μg/mL) for 48 hours in RPMI plus 10% human AB serum, and PBMC activation was determined by flow cytometry based on the percentage of cells with enhanced marker CD69 or CD71. Peptides P28R (SEQ ID NO: 2), P28 core (peptide 32230) (SEQ ID NO: 62), 32251 ([…]) (SEQ ID NO: 592), 32814 ([…]) (SEQ ID NO: 586), 32815 ([…]) (SEQ ID NO: 595), 32665 ([…]) (SEQ ID NO: 593), and 32819 ([…](C(PEG24))) (SEQ ID NO: 594) were tested. […] Accordingly, it is contemplated herein that

[5] = system: PBMCs; test: PBMC activation (CD69/CD71, flow cytometry) in RPMI plus 10% human AB serum; assay type: cell-based; details: healthy control person, 40 μg/mL; for PBMC activation, cells with enhanced CD69: 24 hours
Description: The activity of peptide P28R (SEQ ID NO: 2) and modifications of P28R was studied in a human ex vivo model using PBMCs in short term cultures, 24 or 48 hours. Effects of P28R and modifications of P28R on PBMC's from a healthy control person were studied. Activation was measured as percentage of cells with enhanced marker CD69 using flow cytometry. PBMCs were incubated with the peptides (40 μg/mL) for 24 hours in RPMI plus 10% human AB serum.
As observed in Example 37, P28R (SEQ ID NO: 2) can stimulate PBMC's from healthy controls in short term cultures when RPMI plus 10% normal human AB serum is used as culture medium. Truncations of P28R were also assessed for their ability to activate PBMC's. PBMCs were incubated with the peptides (40 μg/mL) for 24 hours in RPMI plus 10% human AB serum. PBMC activation was measured as percent cells with enhanced expression of either CD69 (FIG. 42A) or CD71 (FIG. 42B) using flow cytometry. Two experiments were performed for each peptide.
Effects of modified peptides on activation of PBMCs from healthy control person were assessed. Activation was determined as percentage of cells with enhanced marker CD69 or CD71 using flow cytometry. PBMCs were incubated with the peptides (40 μg/mL) for 48 hours in RPMI plus 10% human AB serum.

[6] = system: PBMCs; test: IL-2 induced proliferation of PBMCs, ex vivo model (3H-thymidine); assay type: cell-based, human; details: PBMCs from healthy control samples, 7 days
Description: 100 μl of RPMI1640 supplemented with 200 IU/ml penicillin, […] streptomycin, 4 mM L-glutamine (all from Sigma Chemical Co. MO, US) and 20% heat-inactivated human serum (autologous or from cancer patients) were added to uncoated, HSA or HSA/IgG coated tissue culture microtiter plates. PBMC, isolated from healthy individuals or patients with metastatic renal cell carcinoma, were diluted in RPMI/2% HSA at a concentration of 5×10^5/ml and 100 μl were added to the microtiter wells. Interleukin-2 (IL-2, Proleukin, Chiron, NL), at a final concentration of 120 IU/well, was added to some wells. Cells were cultured for 7 days in a humidified, 5% CO2-atmosphere at 37° C. Proliferation was assayed by incorporation of 1.6 μCi/well of [^3H]-thymidine (Amersham Int., UK) during the last 18 hrs. Mean values of dpm (disintegrations per minute) of triplicates were used for the calculations.
Cultures for IL-2 induced proliferation was set up with PBMC from healthy donors and autologous serum as described above with the exception that PBMC were first pre-incubated for 30 min at room temperature with the indicated albumin peptides at a concentration of 10 μg/ml. […]
The effect of different peptides on IL-2 induced proliferation was analyzed in the human ex vivo model, using PBMCs from healthy control samples. […] Proliferation was measured as incorporation of ^3H-thymidine during the final 18 hours. […]

## ELFEQLGEYKFQNALLVR [P3027]
[1]
  effect on NK-cell cytotoxicity: Inhibition was not seen
[2]
  effect on NK-cell cytotoxicity (percent specific lysis): Inhibition was not seen

## CLRLNVFCG [SEQ ID NO: 265]
[3]
  binding to P3028, positional scan: highest affinity

## RKLDTFFVKLSLFTERRR [compound 32814]
[4]; 48 hours
  PBMC activation, cells with enhanced CD69 and CD71: stimulatory effect in short term cultures similar to that of P28R
[5]; 48 hours
  PBMC activation, enhanced CD69 or CD71: stimulatory effect in short term cultures similar to that of P28R

## KKLDTFFVYLSLFTER [compound 31135]
[4]
  PBMC activation, cells with enhanced CD69: directly stimulate
[5]
  PBMC activation, cells with enhanced CD69: also stimulated immune cells

## KKLDTVMVKLQLMTER [compound 30680]
[4]
  PBMC activation, cells with enhanced CD69: did not stimulate
[5]
  PBMC activation, cells with enhanced CD69: induced activation of PBMCs

## CLRLIVMCG [SEQ ID NO: 266]
[3]
  binding to P3028, positional scan: highest affinity

## KVPQVSTPTLVEVSR (listed as Homo sapiens) [P3029]
[6]
  effect on IL-2 induced proliferation: none of the other peptides identified by their binding to the artificial cell surface had any inhibitory activity
